According to US20260216294A1, “BETA 2-ADRENERGIC RECEPTOR AGONISTS FOR TREATMENT OR PREVENTION OF MUSCLE WASTING” (ATROGI AB, priority 2023, published 2026):

What was measured:
L6-myotubes [1] = assay: Glucose uptake in differentiated L6-myotubes (Biological Example 2); type: cell-based; conditions: read-out: Biological example 2 (GU)
Procedure, shortened: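 Differentiated L6 myotubes were serum-starved overnight in 0.5% fatty-acid-free BSA and then stimulated with compound or isoprenaline at 1×10^−5 M final. After 1 h 40 min cells were washed and re-dosed in glucose-free medium. Twenty minutes later, uptake of 50 nM ^3H-2-deoxyglucose over 10 min was measured by scintillation counting of NaOH lysates.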

L6-myotubes [2] = assay: Measurement of intracellular cAMP levels in differentiated L6-myotubes (Biological Example 3); type: cell-based; conditions: 0.25 h
Procedure, shortened: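 Serum-starved differentiated L6 myotubes stimulated 15 min with test compound at 1×10^−5 M final (isoprenaline as reference) in HBSS with 1% BSA, 5 mM HEPES, 1 mM IBMX, pH 7.4. Cells EtOH-extracted, lysed, and intracellular cAMP measured by AlphaScreen.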

[3] = glucose uptake, compound at 10 μM relative to isoproterenol at 10 μM
[4] = intracellular cAMP, compound at 10 μM relative to isoproterenol at 10 μM
[5] = glucose uptake in differentiated L6-myotubes, compound at 10 μM, activity relative to isoproterenol at 10 μM
[6] = intracellular cAMP in differentiated L6-myotubes, compound at 10 μM, activity relative to isoproterenol at 10 μM

Row | SMILES | Emax at 10 µM (L6-myotubes [1]; [3]) | Emax at 10 µM (L6-myotubes [2]; [4]) | Emax at 10 µM (L6-myotubes [1]; [5]) | Emax at 10 µM (L6-myotubes [2]; [6])
1 | CCC[C@H]1CC[C@@H]([C@H](O)c2cccc(F)c2)N1 [Compound 130, (R)-[(2S,5S)-5-propyl-2-pyrrolidinyl](m-fluorophenyl)methanol] | 25 to 50% | < 25% | – | –
2 | CC(C)(NC[C@H](O)c1cncc(F)c1)[C@H]1CC[C@H](N)CC1 [Compound 344] | – | – | < 25% | < 25%
3 | CC(C)(CC[C@H]1CC[C@H](N)CC1)NC[C@H](O)c1cncc(F)c1 [Compound 358] | – | – | 25 to 50% | < 25%
4 | CC12CC(C1)[C@@H]([C@@H](O)c1cccc(F)c1)N2 [Compound 189] | 50 to 75% | < 25% | – | –
5 | CCC[C@@H]1CCC[C@H]([C@@H](O)c2cccc(F)c2)N1 [Compound 60] | 25 to 50% | < 25% | – | –
6 | CS(=O)(=O)N[C@H]1CC[C@H](C[C@@H]2CC[C@H]([C@@H](O)c3cccc(F)c3)N2)CC1 [Compound 505, (S)-[(2R,5S)-5-{[(1r,4S)-4-(mesylamino)cyclohexyl]methyl}-2-pyrrolidinyl](m-fluorophenyl)methanol] | – | – | < 25% | < 25%
7 | CCCC(C)NC(C)C(O)c1ccc(O)cc1 (centres unmarked) [Compound 13, 1-(p-hydroxyphenyl)-2-(1-methylbutylamino)-1-propanol] | 50 to 75% | < 25% | – | –
8 | CC(C)(C[C@H]1CC[C@@H](NC(=O)C2CC2)CC1)NC[C@H](O)c1cccc(F)c1 [Compound 447] | – | – | > 75% | < 25%
9 | CC(C)(C[C@H]1CC[C@@H](N)CC1)NC[C@@H](O)c1cccc(C#N)n1 [Compound 416] | – | – | 50 to 75% | < 25%
10 | COc1ccc(CCC23CCC([C@@H](O)c4cccc(F)c4)(CC2)N3)cc1 [Compound 539, (S)-(m-fluorophenyl){4-[2-(p-methoxyphenyl)ethyl]-7-azabicyclo[[2.2.1]]hept-1-yl}methanol] | – | – | < 25% | < 25%
11 | CC1(C)C[C@@H]([C@@H](O)c2cccc(F)c2)N1 [Compound 199] | – | – | 25 to 50% | < 25%
12 | CC(C)(C[C@H]1CC[C@H](N)CC1)NC[C@H](O)c1cccc(C#N)n1 [Compound 417] | – | – | > 75% | 25 to 50%
13 | O[C@@H](CNCCC[C@H]1CC[C@H](OCc2ccccc2)CC1)c1cncc(F)c1 [Compound 276, (R)-1-(5-fluoro-3-pyridyl)-2-{3-[(1r,4S)-4-(benzyloxy)cyclohexyl]propylamino}-1-ethanol] | – | – | 25 to 50% | < 25%
14 | CC1(C)C[C@H]([C@H](O)c2cccc(Cl)c2)N1 [Compound 230] | – | – | > 75% | < 25%
15 | COC(=O)[C@H]1CC[C@H](C(C)(C)NC[C@H](O)c2cncc(F)c2)CC1 [Compound 370, (1R,4r)-8-[(R)-2-(5-fluoro-3-pyridyl)-2-hydroxyethylamino]-7-methoxy-p-menthan-7-one] | – | – | > 75% | < 25%
16 | CC(C)(C[C@H]1CC[C@H](NC(=O)OC(C)(C)C)CC1)NC[C@H](O)c1cccc(F)c1 [Compound 420, (1R,4r)-4-{2-[(R)-2-(m-fluorophenyl)-2-hydroxyethylamino]-2-methylpropyl}cyclohexy-2-methyl-2-propanecarbamate] | – | – | 50 to 75% | 25 to 50%
17 | CO[C@H]1CC[C@H](C[C@@H]2CC[C@H]([C@@H](O)c3cncc(F)c3)N2)CC1 [Compound 332] | – | – | 25 to 50% | < 25%
18 | CC(C)(C)NC[C@H](O)c1ccncc1F [Compound 108, (R)-2-(tert-butylamino)-1-(3-fluoro-4-pyridyl)-1-ethanol] | 25 to 50% | < 25% | – | –
19 | CC12CCC([C@@H](O)c3ccncc3F)(CC1)N2 [Compound 253, (S)-(3-fluoro-4-pyridyl)(4-methyl-7-azabicyclo[[2.2.1]]hept-1-yl)methanol] | – | – | < 25% | < 25%
20 | CC1(C)C[C@@H]([C@H](O)c2cccc(F)c2)N1 [Compound 200, (R)-[(S)-4,4-dimethyl-2-azetidinyl](m-fluorophenyl)methanol] | – | – | < 25% | < 25%
21 | CCC12CCC([C@@H](O)c3cccc(F)c3)(CC1)N2 [Compound 182, (S)-(m-fluorophenyl)(4-propyl-7-azabicyclo[[2.2.1]]hept-1-yl)methanol] | < 25% | < 25% | – | –
22 | CS(=O)(=O)N[C@H]1CC[C@H](C[C@@H]2CC[C@H]([C@H](O)c3cccc(F)c3)N2)CC1 [Compound 504] | – | – | 50 to 75% | < 25%

Row | SMILES | Emax at 10 µM (L6-myotubes [1]; [3]) | Emax at 10 µM (L6-myotubes [2]; [4]) | Emax at 10 µM (L6-myotubes [1]; [5]) | Emax at 10 µM (L6-myotubes [2]; [6])
23 | CC(=O)N[C@H]1CC[C@H](CNC[C@H](O)c2cccc(F)c2)CC1 [Compound 308] | – | – | 50 to 75% | < 25%
24 | CC12CCC([C@H](O)c3ccncc3F)(CC1)N2 [Compound 254, (R)-(3-fluoro-4-pyridyl)(4-methyl-7-azabicyclo[[2.2.1]]hept-1-yl)methanol] | – | – | < 25% | < 25%
25 | CCC[C@H]1CCC[C@H]([C@H](O)c2ccc(F)c(F)c2)N1 [Compound 67, (R)-[(2R,6S)-6-propyl-2-piperidyl](3,4-difluorophenyl)methanol] | 25 to 50% | < 25% | – | –
26 | CCC[C@H]1CCC[C@H]([C@H](O)c2cccc(O)c2)N1 [Compound 64, (R)-[(2R,6S)-6-propyl-2-piperidyl](m-hydroxyphenyl)methanol] | > 75% | < 25% | – | –
27 | CC1(C)CCC[C@H]([C@H](O)c2cccc(O)c2)N1 [Compound 104, (R)-[(R)-6,6-dimethyl-2-piperidyl](m-hydroxyphenyl)methanol] | 25 to 50% | < 25% | – | –
28 | CCC[C@@H]1CCC[C@@H]([C@H](O)c2cccc(O)c2)N1 [Compound 136] | > 75% | < 25% | – | –
29 | O[C@@H](CNC[C@H]1CC[C@@H](O)CC1)c1cccc(F)c1 [Compound 268, (R)-1-(m-fluorophenyl)-2-({[(1s,4S)-4-hydroxycyclohexyl]methyl}amino)-1-ethanol] | – | – | 25 to 50% | < 25%
30 | CCCC(C)NCC(O)c1ccc(Cl)c(O)c1 (centres unmarked) [Compound 35, 1-(4-chloro-3-hydroxyphenyl)-2-(1-methylbutylamino)-1-ethanol] | > 75% | < 25% | – | –
31 | CC(=O)N[C@H]1CC[C@H](C[C@@H]2CC[C@H]([C@H](O)c3cccc(F)c3)N2)CC1 [Compound 485] | – | – | 50 to 75% | < 25%
32 | CCCC12CCC([C@H](O)c3cccc(F)c3)(CC1)N2 [Compound 183, (R)-(m-fluorophenyl)(4-propyl-7-azabicyclo[[2.2.1]]hept-1-yl)methanol] | 50 to 75% | 25 to 50% | – | –
33 | CC1(C)C[C@H]([C@H](O)c2cccc(F)c2)N1 [Compound 198, (R)-[(R)-4,4-dimethyl-2-azetidinyl](m-fluorophenyl)methanol] | – | – | > 75% | < 25%
34 | CCC[C@@H]1CC[C@H]([C@@H](O)c2cccc(F)c2)N1 [Compound 126] | 25 to 50% | < 25% | – | –
35 | CCC[C@H]1CC[C@H]([C@H](O)c2cccc(F)c2)N1 [Compound 124, (R)-[(2R,5S)-5-propyl-2-pyrrolidinyl](m-fluorophenyl)methanol] | 50 to 75% | < 25% | – | –
36 | CCCC(C)NCC(O)c1cc(Cl)c(N)c(C(F)(F)F)c1 (centres unmarked) [Compound 33, 1-[4-amino-3-chloro-5-(trifluoromethyl)phenyl] -2-(1-methylbutylamino)-1-ethanol] | 50 to 75% | > 75% | – | –
37 | CC1(C)C[C@@H]([C@H](O)c2ccccc2F)N1 [Compound 202, (R)-[(S)-4,4-dimethyl-2-azetidinyl](o-fluorophenyl)methanol] | – | – | < 25% | < 25%
38 | CCC[C@H]1CCC[C@H]([C@H](O)c2ccc(F)cc2)N1 [Compound 92] | 25 to 50% | < 25% | – | –
39 | CC1(C)C[C@@H]([C@@H](O)c2cncc(F)c2)N1 [Compound 215] | – | – | 25 to 50% | < 25%
40 | CC(C)(C)NC[C@H](O)c1ccc(O)cn1 [Compound 95, 6-[(S)-2-(tert-butylamino)-1-hydroxyethyl]-3-pyridinol] | 50 to 75% | < 25% | – | –
41 | CS(=O)(=O)N(Cc1ccccc1)c1cccc(CC23CCC([C@H](O)c4cccc(F)c4)(CC2)N3)c1 [Compound 513] | – | – | 25 to 50% | < 25%
42 | CNS(=O)(=O)[C@H]1CC[C@@H](CC(C)(C)NC[C@H](O)c2cccc(F)c2)CC1 [Compound 477, (R)-2-{1,1-dimethyl-2-[(1s,4S)-4-(methylaminosulfonyl)cyclohexyl]ethylamino}-1-(m-fluorophenyl)-1-ethanol] | – | – | 50 to 75% | < 25%
43 | O[C@@H](c1cncc(F)c1)C12CCC(COCc3ccc(OC(F)(F)F)cc3)(CC1)N2 [Compound 489, (S)-(5-fluoro-3-pyridyl)(4-{[(p-trifluoromethoxyphenyl)methoxy]methyl}-7-azabicyclo[[2.2.1]]hept-1-yl)methanol] | – | – | < 25% | < 25%
